The source made the active and inactive calls. The calls are words filed in the database; no cut-off is given here.

Series [1] deals with A2780. The series can be described thus: Antiproliferative activity against human A2780 cells assessed as cell viability incubated for 72 hrs by CCK8 assay. Format: functional, cell-based. The following applies: A2780, 72 h. For orientation: Tetrazolium assays rely on reduction of a dye to a coloured formazan, in cell work by metabolically active cells.
Series [2] in a line: Cytotoxicity against HK-2 cells. Format: toxicity, cell-based. The note with it: human.
The subject of series [3] is A2780. Kind of series: Reduction in PD-L1 expression in human A2780 cells at IC50 concentration incubated for 72 hrs by immunoblotting analysis. Format: functional, cell-based. A general note: A western blot detects proteins with antibodies after separation by electrophoresis.
Series [4] relates to A2780. The series can be described thus: Antiproliferative activity against human A2780 cells assessed as cell viability at 50 uM incubated for 72 hrs by CCK8 assay. Format: functional. The note with it: read-out: Activity.
Series [5] concerns A2780. The series can be described thus: Induction of apoptosis in human A2780 cells assessed as increase in cleaved caspase-3 level at IC50 concentration incubated for 72 hrs by immunoblotting analysis. Format: functional, cell-based.
For series [6], the system named is A2780. The series can be described thus: Reduction in IDO1 level in human A2780 cells at IC50 concentration incubated for 72 hrs by immunoblotting analysis. The series is classed as functional, cell-based.
In series [7] the test system is A2780. Kind of series: Inhibition of tumor sphere formation in human A2780 cells at IC50 concentration. Format: functional, cell-based.
The subject of series [8] is A2780. Kind of series: Induction of apoptosis in human A2780 cells assessed as increase in cleaved PARP level at IC50 concentration incubated for 72 hrs by immunoblotting analysis. The series is classed as functional, cell-based.
The test system of series [9] is A2780. Kind of series: Downregulation of Sox2 expression in human A2780 cells at IC50 concentration. Format: functional, cell-based.
Series [10] in a line: Cytotoxicity against non-cancerous fallopian tube ovarian cell (unknown origin). The series is classed as toxicity, cell-based. The note with it: non-cancerous fallopian tube ovarian cells.
In series [11] the test system is A2780. Kind of series: Downregulation of CD133 expression in human A2780 cells at IC50 concentration. Format: functional, cell-based.
Series [12] has as its system A2780. Kind of series: Downregulation of Nanog expression in human A2780 cells at IC50 concentration. The series is classed as functional, cell-based.
For series [13], the system named is A2780. The series can be described thus: Induction of apoptosis in human A2780 cells assessed as increase in cytochrome C release at IC50 concentration incubated for 72 hrs by immunoblotting analysis. The series is classed as functional, cell-based.
Series [14] deals with A2780. The series can be described thus: Induction of apoptosis in human A2780 cells assessed as increase in mature AIF expression at IC50 concentration incubated for 72 hrs by immunoblotting analysis. Format: functional, cell-based.
Series [15] relates to A2780. The series can be described thus: Induction of apoptosis in human A2780 cells assessed as increase in cleaved caspase-8 level at IC50 concentration incubated for 72 hrs by immunoblotting analysis. Format: functional, cell-based.
For series [16], the system named is A2780. The series can be described thus: Downregulation of Oct4 expression in human A2780 cells at IC50 concentration. The series is classed as functional, cell-based.
Series [17] has as its system A2780. Kind of series: Cytotoxicity against cisplatin resistant human A2780 cells assessed as reduction in cell viability at IC50 concentration incubated for 72 hrs in presence of cisplatin by CCK-8 method. The series is classed as functional, cell-based.
Series [18] deals with A2780. The series can be described thus: Induction of apoptosis in human A2780 cells assessed as increase in cleaved caspase-9 level at IC50 concentration incubated for 72 hrs by immunoblotting analysis. The series is classed as functional, cell-based.
The subject of series [19] is A2780. The series can be described thus: Inhibition of tumor sphere formation in human A2780 cells assessed as reduction in diameter of the sphere at IC50 concentration (Rvb > 200 micrometer). The series is classed as functional.

The IC50 is the midpoint of a concentration-inhibition curve. Turning to `O=C(Nc1ccc([N+](=O)[O-])cc1)C1CCN(c2ncnc3ccccc23)CC1`, the IC50 was 4.95 µM with A2780 [1], over 50 µM in series [2] and over 50 µM in [10]. In addition, the result in the series with A2780 [3], with A2780 [5], in the series on A2780 [6], in the series with A2780 [8], in the series with A2780 [11] and in the series with A2780 [12] was Active. Also, the outcome with A2780 [13] and with A2780 [14] was Active. Moreover, the viability at 50 µM in the series on A2780 [4] was 33%. Moreover, the inhibition entry in the series with A2780 [7] is “Active”. Also, the result with A2780 [9] was inactive.
Regarding `Nc1nonc1C(=NO)Nc1ccc(F)c(Cl)c1`, the IC50 with A2780 [1] was found to be 14.9 µM; in series [2] it was 30.8 µM; in [10], 18.4 µM.
Turning to `O=C(Nc1ccc(F)c(Cl)c1)C1CCN(c2ncnc3ccccc23)CC1`, the viability at 50 µM with A2780 [4] was found to be 53%.
For `O=C(Nc1ccc(Cl)cc1)C1CCN(c2ncnc3ccccc23)CC1`, the IC50 in the series with A2780 [1] is 5.68 µM; in series [2], over 50 µM; in [10] it was over 50 µM. The outcome with A2780 [3], in the series on A2780 [15], in the series on A2780 [5], with A2780 [6], in the series with A2780 [16] and in the series on A2780 [8] was Active. Moreover, the outcome in the series on A2780 [9], in the series on A2780 [17], in the series with A2780 [11], in the series on A2780 [12] and in the series on A2780 [13] was Active. Moreover, the viability at 50 µM in the series on A2780 [4] came out at 26%. Also, the inhibition result with A2780 [7] is “Active”.
For the compound `O=C(Nc1ccccc1Cl)C1CCN(c2ncnc3ccccc23)CC1`, the IC50 in the series on A2780 [1] was 22.6 µM; in series [2], over 50 µM; in series [10], over 50 µM. In addition, the outcome with A2780 [3], in the series with A2780 [18], in the series with A2780 [15], with A2780 [5], with A2780 [6] and with A2780 [16] was Active. Besides, the outcome with A2780 [8], in the series on A2780 [9], in the series with A2780 [11], in the series with A2780 [12], in the series with A2780 [13] and with A2780 [14] was Active. For the same compound, the viability at 50 µM in the series on A2780 [4] worked out at 30%. Further, in the series on A2780 [7], the inhibition entry was “Active”.
As to `COc1ccc(NC(=O)C2CCN(c3ncnc4ccccc34)CC2)cc1`, the Activity in the series with A2780 [19] is given as under 200 um. Moreover, the IC50 is 9.91 µM in the series with A2780 [1], over 50 µM in series [2] and over 50 µM in [10]. The result in the series on A2780 [3], in the series with A2780 [5], in the series with A2780 [6], in the series with A2780 [8], with A2780 [11] and with A2780 [12] was Active. For the same compound, the result with A2780 [13] and in the series on A2780 [14] was Active. The viability at 50 µM in the series with A2780 [4] came out at 27%. For the same compound, the outcome with A2780 [9] was inactive.
For the compound `O=C(Nc1cccc(Cl)c1)C1CCN(c2ncnc3ccccc23)CC1`, the IC50 with A2780 [1] is 12.2 µM; in series [2], over 50 µM; in series [10] it was over 50 µM. The result in the series on A2780 [3], with A2780 [18], with A2780 [15], in the series on A2780 [5], in the series with A2780 [6] and in the series with A2780 [16] was Active. Further, the outcome in the series on A2780 [8], with A2780 [9], in the series on A2780 [11], in the series with A2780 [12] and in the series on A2780 [13] was Active. Moreover, the viability at 50 µM in the series with A2780 [4] was 22%. Moreover, the inhibition entry in the series on A2780 [7] was “Active”.
Turning to `O=C(Nc1ccc(F)cc1)C1CCN(c2ncnc3ccccc23)CC1`, the viability at 50 µM in the series on A2780 [4] was found to be 68%.
For `O=C(Nc1ccccc1)C1CCN(c2ncnc3ccccc23)CC1`, the IC50 (with A2780 [1]; in series [2]; in [10]) was over 50 µM each time. Moreover, the viability at 50 µM in the series with A2780 [4] came out at 42%.
On to `O=C(Nc1ccccc1F)C1CCN(c2ncnc3ccccc23)CC1`, for which the viability at 50 µM in the series on A2780 [4] came to 52%.
`O=C(Nc1ccc(I)cc1F)C1CCN(c2ncnc3ccccc23)CC1`: in the series with A2780 [4], the viability at 50 µM came out at 76%.
On to `O=C(Nc1cccc(F)c1)C1CCN(c2ncnc3ccccc23)CC1`, for which the viability at 50 µM in the series with A2780 [4] was determined as 58%.
With `O=C(Nc1ccc(Br)cc1)C1CCN(c2ncnc3ccccc23)CC1`, the IC50 was 10.8 µM in the series on A2780 [1], over 50 µM in [2] and over 50 µM in series [10]. For the same compound, the outcome with A2780 [3], with A2780 [15], with A2780 [6], in the series on A2780 [16], in the series with A2780 [9] and with A2780 [11] was Active. Further, the outcome in the series with A2780 [12] and with A2780 [14] was Active. For the same compound, the viability at 50 µM in the series with A2780 [4] is 28%. The inhibition result in the series with A2780 [7] is “Active”.
As for `COc1ccc(NC(=O)C2CCN(c3ncnc4ccccc34)CC2)c(OC)c1`, the viability at 50 µM with A2780 [4] was found to be 60%.
As for `O=C(Nc1cccc2c1OCCO2)C1CCN(c2ncnc3ccccc23)CC1`, the viability at 50 µM in the series on A2780 [4] was determined as 64%.

The values above are taken from ChEMBL document CHEMBL5576056, “Design, synthesis and biological evaluation of novel quinazoline derivatives as immune checkpoint inhibitors” (Bioorg Med Chem Lett, 2024).
